In the kinase profiling compilation of Christmann-Franck et al. (2016):

Tests used:
Test in all cases: KINOMEscan competition binding
Conditions in all cases: compound 10.0 µM
[1] = system: ABL1 (human), P00519 [Q252H]
[2] = system: ABL1 (human), P00519 [Y253F]
ACVR1 (human) = ACVR1 (human) (UniProt Q04771)
CDK11B (human) = CDK11B (human) (UniProt P21127)
CLK3 (human) = CLK3 (human) (UniProt P49761)
CLK4 (human) = CLK4 (human) (UniProt Q9HAZ1)
CSF1R (human) = CSF1R (human) (UniProt P07333)
CSNK1G1 (human) = CSNK1G1 (human) (UniProt Q9HCP0)
DAPK2 (human) = DAPK2 (human) (UniProt Q9UIK4)
DCLK1 (human) = DCLK1 (human) (UniProt O15075)
DDR1 (human) = DDR1 (human) (UniProt Q08345)
ERBB2 (human) = ERBB2 (human) (UniProt P04626)
ERBB3 (human) = ERBB3 (human) (UniProt P21860)
FGFR4 (human) = FGFR4 (human) (UniProt P22455)
IGF1R (human) = IGF1R (human) (UniProt P08069)
IKBKE (human) = IKBKE (human) (UniProt Q14164)
MAP2K4 (human) = MAP2K4 (human) (UniProt P45985)
MAP3K6 (human) = MAP3K6 (human) (UniProt O95382)
MAP4K5 (human) = MAP4K5 (human) (UniProt Q9Y4K4)
MAPK10 (human) = MAPK10 (human) (UniProt P53779)
MAPK13 (human) = MAPK13 (human) (UniProt O15264)
MAPK15 (human) = MAPK15 (human) (UniProt Q8TD08)
MUSK (human) = MUSK (human) (UniProt O15146)
NEK7 (human) = NEK7 (human) (UniProt Q8TDX7)
PAK4 (human) = PAK4 (human) (UniProt O96013)
PAK7 (human) = PAK7 (human) (UniProt Q9P286)
PDGFRA (human) = PDGFRA (human) (UniProt P16234)
PIK3C2G (human) = PIK3C2G (human) (UniProt O75747)
[3] = system: PIK3CA (human), P42336 [E545A]
[4] = system: PIK3CA (human), P42336 [E545K]
PRKACA (human) = PRKACA (human) (UniProt P17612)
PTK2 (human) = PTK2 (human) (UniProt Q05397)
RIPK2 (human) = RIPK2 (human) (UniProt O43353)
ROCK1 (human) = ROCK1 (human) (UniProt Q13464)
RPS6KA5 KD2 (human) = RPS6KA5 KD2 (human) (UniProt O75582)
SRPK1 (human) = SRPK1 (human) (UniProt Q96SB4)
STK10 (human) = STK10 (human) (UniProt O94804)
STK16 (human) = STK16 (human) (UniProt O75716)
STK38L (human) = STK38L (human) (UniProt Q9Y2H1)
TNIK (human) = TNIK (human) (UniProt Q9UKE5)
YSK4 (human) = YSK4 (human) (UniProt Q56UN5)

CLK3 (human), sequence (P49761 whole entry, looked up): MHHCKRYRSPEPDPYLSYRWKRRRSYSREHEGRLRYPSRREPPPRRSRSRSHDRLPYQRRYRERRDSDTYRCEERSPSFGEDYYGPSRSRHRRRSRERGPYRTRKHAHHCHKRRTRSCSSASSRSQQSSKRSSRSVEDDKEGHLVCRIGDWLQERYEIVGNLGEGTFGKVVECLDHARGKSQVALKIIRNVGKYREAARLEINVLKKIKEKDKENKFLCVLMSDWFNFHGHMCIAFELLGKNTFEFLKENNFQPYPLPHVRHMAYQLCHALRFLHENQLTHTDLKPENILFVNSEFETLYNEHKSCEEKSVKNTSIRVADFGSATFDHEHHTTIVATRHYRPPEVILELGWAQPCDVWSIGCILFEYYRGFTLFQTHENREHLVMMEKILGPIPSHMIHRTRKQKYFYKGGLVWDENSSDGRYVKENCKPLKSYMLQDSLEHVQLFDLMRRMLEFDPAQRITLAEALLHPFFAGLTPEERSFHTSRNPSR
RIPK2 (human), sequence (O43353 whole entry, looked up): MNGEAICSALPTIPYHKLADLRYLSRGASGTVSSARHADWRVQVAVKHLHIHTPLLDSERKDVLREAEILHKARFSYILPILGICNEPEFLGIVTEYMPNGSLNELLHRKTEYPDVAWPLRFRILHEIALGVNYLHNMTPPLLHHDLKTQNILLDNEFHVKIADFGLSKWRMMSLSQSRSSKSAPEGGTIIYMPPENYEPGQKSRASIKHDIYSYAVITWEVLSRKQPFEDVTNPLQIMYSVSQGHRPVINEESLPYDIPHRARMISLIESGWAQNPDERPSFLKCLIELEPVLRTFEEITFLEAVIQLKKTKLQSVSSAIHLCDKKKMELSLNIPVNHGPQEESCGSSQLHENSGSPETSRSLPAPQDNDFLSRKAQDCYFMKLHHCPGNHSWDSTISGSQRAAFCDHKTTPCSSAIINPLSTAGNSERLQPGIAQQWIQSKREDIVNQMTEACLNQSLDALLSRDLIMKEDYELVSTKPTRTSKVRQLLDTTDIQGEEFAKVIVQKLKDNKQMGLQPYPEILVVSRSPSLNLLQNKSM
CSF1R (human), sequence (P07333 whole entry, looked up): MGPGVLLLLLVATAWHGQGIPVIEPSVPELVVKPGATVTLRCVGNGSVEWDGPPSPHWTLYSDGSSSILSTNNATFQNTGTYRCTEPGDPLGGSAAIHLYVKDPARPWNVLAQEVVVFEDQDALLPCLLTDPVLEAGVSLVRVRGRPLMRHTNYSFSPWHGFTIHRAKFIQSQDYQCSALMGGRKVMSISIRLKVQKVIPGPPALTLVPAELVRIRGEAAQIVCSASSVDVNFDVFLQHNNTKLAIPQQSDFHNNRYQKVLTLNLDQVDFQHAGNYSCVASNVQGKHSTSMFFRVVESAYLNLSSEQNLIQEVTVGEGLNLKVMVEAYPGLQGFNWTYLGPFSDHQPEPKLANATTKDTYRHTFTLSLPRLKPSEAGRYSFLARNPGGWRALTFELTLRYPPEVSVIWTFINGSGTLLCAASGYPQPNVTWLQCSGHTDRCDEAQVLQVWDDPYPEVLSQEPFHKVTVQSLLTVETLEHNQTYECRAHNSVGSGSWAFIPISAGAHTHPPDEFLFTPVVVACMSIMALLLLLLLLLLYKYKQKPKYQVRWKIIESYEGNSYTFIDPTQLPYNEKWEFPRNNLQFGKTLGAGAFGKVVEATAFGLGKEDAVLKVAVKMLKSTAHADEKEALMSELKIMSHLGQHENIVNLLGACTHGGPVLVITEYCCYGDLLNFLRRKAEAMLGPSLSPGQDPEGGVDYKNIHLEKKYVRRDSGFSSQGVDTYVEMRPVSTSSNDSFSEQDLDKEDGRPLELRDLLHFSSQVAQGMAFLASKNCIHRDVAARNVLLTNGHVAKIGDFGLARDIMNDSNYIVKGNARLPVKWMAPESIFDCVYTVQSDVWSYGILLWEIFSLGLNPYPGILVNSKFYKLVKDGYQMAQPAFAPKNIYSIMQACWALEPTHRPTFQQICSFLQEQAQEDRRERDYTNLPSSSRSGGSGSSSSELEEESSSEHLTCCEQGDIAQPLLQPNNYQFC
ERBB3 (human), sequence (P21860 whole entry, looked up): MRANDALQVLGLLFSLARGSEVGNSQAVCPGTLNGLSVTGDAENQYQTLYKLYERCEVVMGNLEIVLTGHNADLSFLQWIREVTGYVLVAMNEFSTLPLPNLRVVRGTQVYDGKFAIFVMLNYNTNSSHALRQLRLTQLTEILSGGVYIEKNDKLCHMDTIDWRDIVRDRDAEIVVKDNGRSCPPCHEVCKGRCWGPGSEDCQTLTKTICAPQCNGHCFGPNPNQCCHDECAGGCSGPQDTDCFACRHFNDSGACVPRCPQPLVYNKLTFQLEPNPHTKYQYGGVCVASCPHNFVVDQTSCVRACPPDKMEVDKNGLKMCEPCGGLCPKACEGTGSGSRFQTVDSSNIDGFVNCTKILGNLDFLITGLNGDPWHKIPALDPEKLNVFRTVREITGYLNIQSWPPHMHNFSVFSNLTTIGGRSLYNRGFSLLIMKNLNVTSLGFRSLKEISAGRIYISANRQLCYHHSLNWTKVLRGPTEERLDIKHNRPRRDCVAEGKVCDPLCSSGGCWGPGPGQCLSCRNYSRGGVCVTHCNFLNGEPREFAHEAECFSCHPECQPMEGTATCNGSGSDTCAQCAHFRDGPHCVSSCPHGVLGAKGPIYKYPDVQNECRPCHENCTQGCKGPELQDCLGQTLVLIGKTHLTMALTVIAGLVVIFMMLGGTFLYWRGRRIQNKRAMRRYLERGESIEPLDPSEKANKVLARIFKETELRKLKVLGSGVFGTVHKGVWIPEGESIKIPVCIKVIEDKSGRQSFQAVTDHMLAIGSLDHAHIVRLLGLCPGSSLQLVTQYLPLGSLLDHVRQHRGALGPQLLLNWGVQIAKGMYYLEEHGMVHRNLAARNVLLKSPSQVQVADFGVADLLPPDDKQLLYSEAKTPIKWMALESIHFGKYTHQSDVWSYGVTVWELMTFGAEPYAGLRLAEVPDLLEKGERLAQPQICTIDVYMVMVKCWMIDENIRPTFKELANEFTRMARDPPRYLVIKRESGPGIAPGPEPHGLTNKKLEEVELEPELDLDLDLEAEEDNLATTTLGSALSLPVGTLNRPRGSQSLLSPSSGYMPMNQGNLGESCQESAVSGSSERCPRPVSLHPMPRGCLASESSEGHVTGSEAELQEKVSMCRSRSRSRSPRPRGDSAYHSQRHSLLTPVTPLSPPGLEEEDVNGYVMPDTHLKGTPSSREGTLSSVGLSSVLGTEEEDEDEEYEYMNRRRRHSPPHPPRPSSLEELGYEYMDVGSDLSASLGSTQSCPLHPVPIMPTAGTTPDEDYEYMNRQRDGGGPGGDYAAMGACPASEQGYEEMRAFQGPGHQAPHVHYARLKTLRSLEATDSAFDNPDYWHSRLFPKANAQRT
DCLK1 (human), sequence (O15075 whole entry, looked up): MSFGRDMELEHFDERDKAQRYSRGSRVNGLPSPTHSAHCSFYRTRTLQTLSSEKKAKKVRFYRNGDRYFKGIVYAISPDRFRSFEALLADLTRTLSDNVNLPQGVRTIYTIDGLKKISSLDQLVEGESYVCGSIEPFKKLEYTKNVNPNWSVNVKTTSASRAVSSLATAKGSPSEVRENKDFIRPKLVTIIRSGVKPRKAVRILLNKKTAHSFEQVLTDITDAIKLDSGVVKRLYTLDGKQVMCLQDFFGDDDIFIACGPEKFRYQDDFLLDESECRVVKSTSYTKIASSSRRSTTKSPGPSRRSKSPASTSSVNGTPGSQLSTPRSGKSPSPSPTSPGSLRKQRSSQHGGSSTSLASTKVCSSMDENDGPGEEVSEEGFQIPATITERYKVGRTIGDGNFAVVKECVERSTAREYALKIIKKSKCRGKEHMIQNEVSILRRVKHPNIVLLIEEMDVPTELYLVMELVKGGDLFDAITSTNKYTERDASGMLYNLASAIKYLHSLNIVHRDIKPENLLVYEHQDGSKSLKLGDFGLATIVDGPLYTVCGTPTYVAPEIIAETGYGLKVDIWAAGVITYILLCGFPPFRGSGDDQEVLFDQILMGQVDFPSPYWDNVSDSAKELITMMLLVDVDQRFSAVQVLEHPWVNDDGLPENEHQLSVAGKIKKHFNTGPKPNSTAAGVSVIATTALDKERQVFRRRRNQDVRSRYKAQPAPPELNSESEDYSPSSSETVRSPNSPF
RPS6KA5 KD2 (human), sequence (O75582 whole entry, looked up): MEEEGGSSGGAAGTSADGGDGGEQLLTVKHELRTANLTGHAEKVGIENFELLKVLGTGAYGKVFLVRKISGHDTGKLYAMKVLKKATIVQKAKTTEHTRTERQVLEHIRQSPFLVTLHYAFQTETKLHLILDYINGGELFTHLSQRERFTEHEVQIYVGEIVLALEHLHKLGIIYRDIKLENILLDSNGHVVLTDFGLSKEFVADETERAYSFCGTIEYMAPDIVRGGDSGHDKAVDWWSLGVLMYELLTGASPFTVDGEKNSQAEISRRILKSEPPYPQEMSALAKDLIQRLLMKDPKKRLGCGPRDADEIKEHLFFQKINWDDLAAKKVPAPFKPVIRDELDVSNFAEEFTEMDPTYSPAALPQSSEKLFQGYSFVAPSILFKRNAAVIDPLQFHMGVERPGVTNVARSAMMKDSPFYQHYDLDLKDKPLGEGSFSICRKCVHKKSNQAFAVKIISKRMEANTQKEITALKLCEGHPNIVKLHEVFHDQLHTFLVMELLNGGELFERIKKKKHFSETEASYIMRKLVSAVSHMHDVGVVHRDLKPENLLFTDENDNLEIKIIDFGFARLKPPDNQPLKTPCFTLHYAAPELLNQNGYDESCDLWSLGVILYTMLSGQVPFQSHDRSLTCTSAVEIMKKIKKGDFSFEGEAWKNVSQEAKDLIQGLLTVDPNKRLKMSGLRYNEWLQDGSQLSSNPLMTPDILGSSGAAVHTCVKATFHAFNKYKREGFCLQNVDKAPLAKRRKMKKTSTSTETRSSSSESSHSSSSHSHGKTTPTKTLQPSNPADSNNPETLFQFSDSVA

For Cn1cc(C2=C(c3ccc(Cl)cc3Cl)C(=O)NC2=O)c2ccccc21, the kinase still bound, per cent of control [1] was 100%, the kinase still bound, per cent of control [2] was 100% and the kinase still bound, per cent of control (ACVR1 (human)) was 100%. The kinase still bound, per cent of control (CDK11B (human)) was 100%, the kinase still bound, per cent of control (CLK3 (human)) was 1.4% and the kinase still bound, per cent of control (CLK4 (human)) was 7.8%. It also gave a kinase still bound, per cent of control (CSF1R (human)) of 87%, a kinase still bound, per cent of control (CSNK1G1 (human)) of 81% and a kinase still bound, per cent of control (DAPK2 (human)) of 67%. For the same compound, the kinase still bound, per cent of control (DCLK1 (human)) was 100%, the kinase still bound, per cent of control (DDR1 (human)) was 100% and the kinase still bound, per cent of control (ERBB2 (human)) was 100%. It also gave a kinase still bound, per cent of control (ERBB3 (human)) of 57%, a kinase still bound, per cent of control (FGFR4 (human)) of 88% and a kinase still bound, per cent of control (IGF1R (human)) of 95%. It also gave a kinase still bound, per cent of control (IKBKE (human)) of 85%, a kinase still bound, per cent of control (MAP2K4 (human)) of 82% and a kinase still bound, per cent of control (MAP3K6 (human)) of 64%. It also gave a kinase still bound, per cent of control (MAP4K5 (human)) of 83%, a kinase still bound, per cent of control (MAPK10 (human)) of 62% and a kinase still bound, per cent of control (MAPK13 (human)) of 100%. For the same compound, the kinase still bound, per cent of control (MAPK15 (human)) was 1.7%, the kinase still bound, per cent of control (MUSK (human)) was 100% and the kinase still bound, per cent of control (NEK7 (human)) was 89%. It also gave a kinase still bound, per cent of control (PAK4 (human)) of 82%, a kinase still bound, per cent of control (PAK7 (human)) of 75% and a kinase still bound, per cent of control (PDGFRA (human)) of 100%. For the same compound, the kinase still bound, per cent of control (PIK3C2G (human)) was 94%, the kinase still bound, per cent of control [3] was 100% and the kinase still bound, per cent of control [4] was 100%. The kinase still bound, per cent of control (PRKACA (human)) was 100%, the kinase still bound, per cent of control (PTK2 (human)) was 84% and the kinase still bound, per cent of control (RIPK2 (human)) was 94%. It also gave a kinase still bound, per cent of control (ROCK1 (human)) of 68%, a kinase still bound, per cent of control (RPS6KA5 KD2 (human)) of 100% and a kinase still bound, per cent of control (SRPK1 (human)) of 89%. For the same compound, the kinase still bound, per cent of control (STK10 (human)) was 97%, the kinase still bound, per cent of control (STK16 (human)) was 29% and the kinase still bound, per cent of control (STK38L (human)) was 100%. It also gave a kinase still bound, per cent of control (TNIK (human)) of 68% and a kinase still bound, per cent of control (YSK4 (human)) of 12%.

O=C1Nc2cc(Br)ccc2/C1=C1/Nc2ccccc2/C1=N\O gave a kinase still bound, per cent of control [1] of 3.8%, a kinase still bound, per cent of control [2] of 4.2% and a kinase still bound, per cent of control (ACVR1 (human)) of 32%. The kinase still bound, per cent of control (CDK11B (human)) was 100%, the kinase still bound, per cent of control (CLK3 (human)) was 81% and the kinase still bound, per cent of control (CLK4 (human)) was 99%. The kinase still bound, per cent of control (CSF1R (human)) was 1.2%, the kinase still bound, per cent of control (CSNK1G1 (human)) was 39% and the kinase still bound, per cent of control (DAPK2 (human)) was 2.6%. The kinase still bound, per cent of control (DCLK1 (human)) was 99%, the kinase still bound, per cent of control (DDR1 (human)) was 55% and the kinase still bound, per cent of control (ERBB2 (human)) was 87%. The kinase still bound, per cent of control (ERBB3 (human)) was 61%, the kinase still bound, per cent of control (FGFR4 (human)) was 21% and the kinase still bound, per cent of control (IGF1R (human)) was 83%. For the same compound, the kinase still bound, per cent of control (IKBKE (human)) was 29%, the kinase still bound, per cent of control (MAP2K4 (human)) was 67% and the kinase still bound, per cent of control (MAP3K6 (human)) was 41%. It also gave a kinase still bound, per cent of control (MAP4K5 (human)) of 9.2%, a kinase still bound, per cent of control (MAPK10 (human)) of 12% and a kinase still bound, per cent of control (MAPK13 (human)) of 100%. It also gave a kinase still bound, per cent of control (MAPK15 (human)) of 29%, a kinase still bound, per cent of control (MUSK (human)) of 83% and a kinase still bound, per cent of control (NEK7 (human)) of 100%. The kinase still bound, per cent of control (PAK4 (human)) was 21%, the kinase still bound, per cent of control (PAK7 (human)) was 17% and the kinase still bound, per cent of control (PDGFRA (human)) was 0%. It also gave a kinase still bound, per cent of control (PIK3C2G (human)) of 100%, a kinase still bound, per cent of control [3] of 100% and a kinase still bound, per cent of control [4] of 100%. It also gave a kinase still bound, per cent of control (PRKACA (human)) of 100%, a kinase still bound, per cent of control (PTK2 (human)) of 49% and a kinase still bound, per cent of control (RIPK2 (human)) of 69%. For the same compound, the kinase still bound, per cent of control (ROCK1 (human)) was 61%, the kinase still bound, per cent of control (RPS6KA5 KD2 (human)) was 75% and the kinase still bound, per cent of control (SRPK1 (human)) was 5%. It also gave a kinase still bound, per cent of control (STK10 (human)) of 75%, a kinase still bound, per cent of control (STK16 (human)) of 0.8% and a kinase still bound, per cent of control (STK38L (human)) of 48%. The kinase still bound, per cent of control (TNIK (human)) was 4.6% and the kinase still bound, per cent of control (YSK4 (human)) was 3.8%.
